We go through one molecule from US10112943B2, “Substituted imidazoles as gamma secretase modulators” (Janssen Pharmaceutica NV, priority 2012, dated 2018).

In one data set the target is T1, γ-secretase (Homo sapiens, UniProt P49768).
T1 construct: endogenous in cells; host or cells: SKNBE2 human neuroblastoma cells carrying hAPP 695 wild type
Nature of the data set: Screening for γ-secretase-modulating activity: Aβtotal in cell supernatant (Alphalisa sandwich immuno-assay). It is filed as cell-based. To be noted: SKNBE2 human neuroblastoma cells carrying hAPP 695-wild type, overnight incubation. How it is done:
A) Screening of the Compounds of the Invention for γ-Secretase-Modulating Activity
Screening was carried out using SKNBE2 human neuroblastoma cells carrying the hAPP 695-wild type, grown in Dulbecco's Modified Eagle's Medium/Nutrient mixture F-12 (DMEM/NUT-mix F-12) (HAM) provided by Invitrogen (cat no. 10371-029) containing 5% Serum/Fe supplemented with 1% non-essential amino acids, 1-glutamine 2 mM, Hepes 15 mM, penicillin 50 U/ml (units/ml) and streptomycin 50 μg/ml. Cells were grown to near confluency.
The screening was performed using a modification of the assay as described in Citron et al (1997) Nature Medicine 3: 67. Briefly, cells were plated in a 384-well plate at 10^4 cells/well in Ultraculture (Lonza, BE12-725F) supplemented with 1% glutamine (Invitrogen, 25030-024), 1% non-essential amino acid (NEAA), penicillin 50 U/ml en streptomycin 50 μg/ml in the presence of test compound at different test concentrations. The cell/compound mixture was incubated overnight at 37° C., 5% CO2. The next day the media were assayed by two sandwich immuno-assays, for Aβ42 and Aβtotal.
Aβtotal and Aβ42 concentrations were quantified in the cell supernatant using the Aphalisa technology (Perkin Elmer). Alphalisa is a sandwich assay using biotinylated antibody attached to streptavidin coated donorbeads and antibody conjugated to acceptor beads. In the presence of antigen, the beads come into close proximity. The excitation of the donor beads provokes the release of singlet oxygen molecules that trigger a cascade of energy transfer in the acceptor beads, resulting in light emission. To quantify the amount of Aβ42 in the cell supernatant, monoclonal antibody specific to the C-terminus of Aβ42 (JRF/cAβ42/26) was coupled to the receptor beads and biotinylated antibody specific to the N-terminus of Aβ (JRF/AβN/25) was used to react with the donor beads. To quantify the amount of Aβtotal in the cell supernatant, monoclonal antibody specific to the N-terminus of Aβ (JRF/AβN/25) was coupled to the receptor beads and biotinylated antibody specific to the mid region of Aβ (biotinylated 4G8) was used to react with the donor beads.
The sigmoidal dose response curves were analyzed using non-linear regression analysis with percentage of the control plotted against the log concentration of the compound. A 4-parameter equation was used to determine the IC50.
On the technique in general: Alpha assays give light when donor and acceptor beads are brought close together.

The next data set relates to Aβ42. Nature of the data set: In vivo efficacy: brain levels of soluble Aβ42 in non-transgenic rodents (MSD electrochemiluminescence). More on the design: species or system mouse. To be noted: dose 30 mg/kg oral dosing, soluble fraction, untreated animals (Ctrl) set at 100, typical protocol 4 h after dose. The text has this: (§1) To determine whether acute administration of an Aβ42 lowering agent would reduce Aβ42 levels in vivo, non-transgenic rodents, e.g. mice or rats were used. Animals treated with the Aβ42 lowering agent were examined and compared to those untreated or treated with vehicle and brain levels of soluble Aβ42, Aβ40, Aβ38, and Aβ37 were quantitated by Meso Scale Discovery's (MSD) electrochemiluminescence detection technology. Treatment periods varied from hours (h) to days and were adjusted based on the results of the Aβ42 lowering once a time course of onset of effect could be established.
(§2) A typical protocol for measuring Aβ42 lowering in vivo is shown but it is only one of many variations that could be used to optimize the levels of detectable Aβ. […] After 4 h, the animals were sacrificed and Aβ42 levels were analysed.
(§3) Blood was collected by decapitation and exsanguinations in EDTA-treated collection tubes. […] The left hemisphere was stored at −18° C. for quantitative analysis of test compound levels. […]
(§4) Mouse brains from non-transgenic animals were resuspended in 8 volumes of 0.4% DEA (diethylamine)/50 mM NaCl containing protease inhibitors (Roche-11873580001 or 04693159001) per gram of tissue, e.g. for 0.158 g brain, add 1.264 ml of 0.4% DEA. […] Nine parts of supernatant were neutralized with 1 part 0.5 M Tris-HCl pH 6.8 and used to quantify Aβ. […]

A further data set has as its system Aβ40. Nature of the data set: In vivo efficacy: brain levels of soluble Aβ40 in non-transgenic rodents (MSD electrochemiluminescence). More on the design: species or system mouse. To be noted: dose 30 mg/kg oral dosing, soluble fraction, untreated animals (Ctrl) set at 100, typical protocol 4 h after dose.
Description: as §1, §2, §3, §4

As to `Cc1cn(-c2ccc3n(c2=O)C[C@@H]2CC[C@@H](Cc4cc(C(F)(F)F)cc(C(F)(F)F)c4)N2C3=O)cn1` (single isomer, unassigned) [Compound 4, 3-[[3,5-bis(trifluoromethyl)phenyl]methyl]-2,3,11,11a-tetrahydro-8-(4-methyl-1H-imidazol-1-yl)-1H-pyrido[1,2-a]pyrrolo[1,2-d]pyrazine-5,9-dione ((3S, 11aS) or (3R, 11aR))], the melting point was 254.8 °C. On γ-secretase, the IC50 is more than 10 µM. Further, in the data set on Aβ42, the “Aβ42 (% vs Ctrl) _Mean” value is reported as 47 % vs Ctrl. Also, the “Aβ40 (% vs Ctrl) _Mean” value in the data set on Aβ40 stood at 69 % vs Ctrl.

The IC50 is the point on the concentration scale where inhibition reaches its midpoint. Read a low IC50 as greater potency in that assay. Broadly, the melting point is the temperature of the solid-liquid transition.
